According to ChEMBL document CHEMBL3797167, “Development of a peptide-based inducer of nuclear receptors degradation” (Bioorg Med Chem Lett, 2016):
Active and inactive are the calls of the source. The rule behind the calls is not given here.

How the values were obtained:
Format in all cases: cell-based
[1] = target: T1, Aryl hydrocarbon receptor (Homo sapiens, UniProt P35869); assay: Induction of AhR degradation in human MCF7 cells assessed as AhR/lamin ratio level at 20 uM after 6 hrs by Western blot analysis (reference value: 100%); details: mcf7, 6 h
T1 sequence (P35869 whole entry): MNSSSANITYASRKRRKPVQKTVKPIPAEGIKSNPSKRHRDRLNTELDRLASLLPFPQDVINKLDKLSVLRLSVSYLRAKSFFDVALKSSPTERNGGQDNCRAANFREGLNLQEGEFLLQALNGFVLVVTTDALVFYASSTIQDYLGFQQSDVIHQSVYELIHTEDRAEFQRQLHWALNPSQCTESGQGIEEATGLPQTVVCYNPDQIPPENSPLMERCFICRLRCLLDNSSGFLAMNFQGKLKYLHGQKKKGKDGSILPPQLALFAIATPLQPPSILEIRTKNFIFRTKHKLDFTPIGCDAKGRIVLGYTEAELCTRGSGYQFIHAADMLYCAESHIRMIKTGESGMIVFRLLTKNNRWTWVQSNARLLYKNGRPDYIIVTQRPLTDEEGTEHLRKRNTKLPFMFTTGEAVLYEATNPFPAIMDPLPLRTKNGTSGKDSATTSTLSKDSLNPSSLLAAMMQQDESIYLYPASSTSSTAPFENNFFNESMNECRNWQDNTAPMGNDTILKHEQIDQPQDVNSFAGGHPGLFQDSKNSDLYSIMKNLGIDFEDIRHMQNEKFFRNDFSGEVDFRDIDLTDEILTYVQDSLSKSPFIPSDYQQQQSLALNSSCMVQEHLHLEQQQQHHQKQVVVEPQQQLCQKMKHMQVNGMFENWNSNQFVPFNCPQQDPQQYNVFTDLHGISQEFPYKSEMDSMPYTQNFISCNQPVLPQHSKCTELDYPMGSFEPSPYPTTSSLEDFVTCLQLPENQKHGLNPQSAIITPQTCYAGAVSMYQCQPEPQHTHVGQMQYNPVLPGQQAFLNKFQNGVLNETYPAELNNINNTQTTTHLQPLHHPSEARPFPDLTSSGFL

[2] = target: T2, Androgen receptor (Homo sapiens) (UniProt P10275); assay: Induction of AR degradation in human MCF7 cells assessed as AR/lamin ratio level at 10 uM after 6 hrs by Western blot analysis (reference value: 100%)
T2 sequence (whole entry): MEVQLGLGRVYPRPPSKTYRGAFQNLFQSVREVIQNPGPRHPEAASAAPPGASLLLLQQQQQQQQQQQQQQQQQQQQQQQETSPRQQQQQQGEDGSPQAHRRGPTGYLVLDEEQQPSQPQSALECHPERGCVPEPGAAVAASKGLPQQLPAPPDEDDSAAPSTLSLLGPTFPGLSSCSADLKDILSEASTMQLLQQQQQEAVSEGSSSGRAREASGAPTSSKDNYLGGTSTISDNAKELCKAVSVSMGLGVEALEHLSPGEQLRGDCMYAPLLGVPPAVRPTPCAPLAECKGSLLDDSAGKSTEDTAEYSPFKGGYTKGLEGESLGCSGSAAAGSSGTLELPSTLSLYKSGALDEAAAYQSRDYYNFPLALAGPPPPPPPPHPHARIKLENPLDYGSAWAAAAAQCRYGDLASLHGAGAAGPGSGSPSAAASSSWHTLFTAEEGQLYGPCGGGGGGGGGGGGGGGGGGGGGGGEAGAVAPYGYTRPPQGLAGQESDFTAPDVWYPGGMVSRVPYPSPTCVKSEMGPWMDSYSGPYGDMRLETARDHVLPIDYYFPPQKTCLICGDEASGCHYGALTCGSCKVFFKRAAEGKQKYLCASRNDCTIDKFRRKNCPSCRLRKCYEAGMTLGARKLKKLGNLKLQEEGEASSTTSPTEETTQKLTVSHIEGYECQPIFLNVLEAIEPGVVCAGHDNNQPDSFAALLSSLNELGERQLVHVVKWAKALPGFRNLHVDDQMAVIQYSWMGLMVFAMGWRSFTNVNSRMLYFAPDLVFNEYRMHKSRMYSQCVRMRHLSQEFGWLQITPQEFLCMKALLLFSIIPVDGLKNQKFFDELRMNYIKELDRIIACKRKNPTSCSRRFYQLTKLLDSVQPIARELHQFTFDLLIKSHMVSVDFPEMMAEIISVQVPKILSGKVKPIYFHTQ

[3] = target: Baculoviral IAP repeat-containing protein 2 (Homo sapiens) (UniProt Q13490); assay: Induction of cIAP1 degradation in human MCF7 cells at 10 to 20 uM after 6 hrs by Western blot analysis in presence of MG132
[4] = test system: MCF7; assay: Cytotoxicity against human MCF7 cells at 20 uM after 6 hrs; details: mcf7, 6 h
[5] = target: T3, Estrogen receptor (Homo sapiens) (UniProt P03372); assay: Induction of ERalpha degradation in human MCF7 cells assessed as ERalpha/lamin ratio level at 10 uM after 6 hrs by Western blot analysis (reference value: 100%)
T3 sequence (whole entry): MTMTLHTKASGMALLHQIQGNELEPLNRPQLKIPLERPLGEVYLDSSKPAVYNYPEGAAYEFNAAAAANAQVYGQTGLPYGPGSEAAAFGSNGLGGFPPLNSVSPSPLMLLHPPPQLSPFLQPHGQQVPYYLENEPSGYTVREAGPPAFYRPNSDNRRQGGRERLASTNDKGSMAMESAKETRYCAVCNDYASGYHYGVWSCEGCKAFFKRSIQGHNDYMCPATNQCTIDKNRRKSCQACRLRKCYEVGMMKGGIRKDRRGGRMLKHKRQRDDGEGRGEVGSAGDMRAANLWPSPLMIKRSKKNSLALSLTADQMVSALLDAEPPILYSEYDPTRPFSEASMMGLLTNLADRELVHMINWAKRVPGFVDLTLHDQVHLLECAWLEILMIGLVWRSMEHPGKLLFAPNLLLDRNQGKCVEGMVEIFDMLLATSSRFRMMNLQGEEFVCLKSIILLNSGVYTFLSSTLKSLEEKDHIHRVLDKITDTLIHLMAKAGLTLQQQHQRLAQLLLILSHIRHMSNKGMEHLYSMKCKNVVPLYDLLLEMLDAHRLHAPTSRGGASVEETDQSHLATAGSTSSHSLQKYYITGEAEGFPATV

[6] = target: T3, Estrogen receptor (Homo sapiens); assay: Induction of ERalpha degradation in human MCF7 cells at 10 to 20 uM after 6 hrs by Western blot analysis in presence of MG132
[7] = target: T3, Estrogen receptor (Homo sapiens); assay: Induction of ERalpha degradation in human MCF7 cells assessed as ERalpha/lamin ratio level at 20 uM after 6 hrs by Western blot analysis (reference value: 100%)
[8] = target: T2, Androgen receptor (Homo sapiens); assay: Induction of AR degradation in human MCF7 cells assessed as AR/lamin ratio level at 20 uM after 6 hrs by Western blot analysis (reference value: 100%)
[9] = target: T2, Androgen receptor (Homo sapiens); assay: Induction of AR degradation in human MCF7 cells at 10 to 20 uM after 6 hrs by Western blot analysis
[10] = target: T3, Estrogen receptor (Homo sapiens); assay: Induction of ERalpha degradation in human MCF7 cells at 10 to 20 uM after 6 hrs by Western blot analysis
[11] = target: T2, Androgen receptor (Homo sapiens); assay: Induction of AR degradation in human MCF7 cells at 10 to 20 uM after 6 hrs by Western blot in presence of MG132
[12] = target: T1, Aryl hydrocarbon receptor; assay: Induction of AhR degradation in human MCF7 cells at 10 to 20 uM after 6 hrs by Western blot analysis; details: mcf7, 6 h
[13] = target: T1, Aryl hydrocarbon receptor; assay: Induction of AhR degradation in human MCF7 cells assessed as AhR/lamin ratio level at 10 uM after 6 hrs by Western blot analysis (reference value: 100%); details: mcf7, 6 h

Chain of Baculoviral IAP repeat-containing protein 2 (Homo sapiens) (Q13490 whole entry): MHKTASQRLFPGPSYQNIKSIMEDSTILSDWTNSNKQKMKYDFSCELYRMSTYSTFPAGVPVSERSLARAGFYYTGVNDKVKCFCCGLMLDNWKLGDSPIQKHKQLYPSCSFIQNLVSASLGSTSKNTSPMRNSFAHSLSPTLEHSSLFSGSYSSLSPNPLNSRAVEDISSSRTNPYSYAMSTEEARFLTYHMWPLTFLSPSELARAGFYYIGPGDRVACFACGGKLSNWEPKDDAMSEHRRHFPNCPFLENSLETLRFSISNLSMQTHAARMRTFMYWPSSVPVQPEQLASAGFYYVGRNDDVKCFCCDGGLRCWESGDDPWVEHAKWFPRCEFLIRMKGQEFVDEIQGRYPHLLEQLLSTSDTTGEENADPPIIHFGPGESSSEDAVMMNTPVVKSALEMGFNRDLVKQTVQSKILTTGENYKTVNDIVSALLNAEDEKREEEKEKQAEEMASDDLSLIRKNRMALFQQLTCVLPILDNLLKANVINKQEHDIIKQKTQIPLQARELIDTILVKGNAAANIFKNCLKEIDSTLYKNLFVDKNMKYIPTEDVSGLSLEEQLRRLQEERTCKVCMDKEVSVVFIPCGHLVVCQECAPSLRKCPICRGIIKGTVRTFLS

Activity [1]: 98% | Activity [2]: 77% | Activity [3]: inactive | Activity [5]: 82% | Activity [6]: inactive | Activity [7]: 64% | Activity [8]: 54% | Activity [9]: Active | Activity [10]: Active | Activity [11]: inactive | Activity [12]: Not Active | Activity [13]: 109%
Compound: CC[C@@H](C)[C@@H]1NC(=O)[C@H](NC(=O)[C@H](N)CCCCNC(=O)CCNC(=O)CCNC(=O)CCNC(=O)CCNC(=O)CCNC(=O)[C@H](NC(=O)[C@H]2CCCN2C(=O)[C@@H](NC(=O)[C@@H](C)NC)C2CCCCC2)C(c2ccccc2)c2ccccc2)CSSC[C@@H](C(=O)N[C@@H](CCCNC(=N)N)C(=O)N[C@@H](CC(C)(C)C)C(=O)N[C@@H](CC(C)C)C(=O)N[C@@H](CCC(N)=O)C(=O)NCC(=O)NCC(=O)NCC(=O)N[C@@H](CCCNC(=N)N)C(=O)N[C@@H](CCCNC(=N)N)C(=O)N[C@@H](CCCNC(=N)N)C(=O)N[C@@H](CCCNC(=N)N)C(=O)N[C@@H](CCCNC(=N)N)C(=O)N[C@@H](CCCNC(=N)N)C(=O)N[C@H](CCCNC(=N)N)C(N)=O)NC(=O)[C@H](CC(C)C)NC1=O
Activity [4]: Non-toxic
